Data reported in patent publication US20120214822A1 (ASTRAZENECA AB, priority 2007, published 2012).

Biological target: human active recombinant p38α-6His tagged (Homo sapiens, UniProt Q16539)
Experiment: P38 Alpha Enzyme Assay (AlphaScreen, biotinylated-ATF2 substrate);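 note: 0.5 nM final p38α, reaction started with ATP and run 45 min at 37 °C, phospho-ATF2 read by antibody-based AlphaScreen, background wells quenched with EDTA before ATP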
Assay type: biochemical
Conditions: p38 alpha enzyme inhibition; means of replicate determinations; 4 h pre-incubation at 37° C.; SD of assay 0.2-0.3 log units

human active recombinant p38α-6His tagged, sequence (Q16539 whole entry): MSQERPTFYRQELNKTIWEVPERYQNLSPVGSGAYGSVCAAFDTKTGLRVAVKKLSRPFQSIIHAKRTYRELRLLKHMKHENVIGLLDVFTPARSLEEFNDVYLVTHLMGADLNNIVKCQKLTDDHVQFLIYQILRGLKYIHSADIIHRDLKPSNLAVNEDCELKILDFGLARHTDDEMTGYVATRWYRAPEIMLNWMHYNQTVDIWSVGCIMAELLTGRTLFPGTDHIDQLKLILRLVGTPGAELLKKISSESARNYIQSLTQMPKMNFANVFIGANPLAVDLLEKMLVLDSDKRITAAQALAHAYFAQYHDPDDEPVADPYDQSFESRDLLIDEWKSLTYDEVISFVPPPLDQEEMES

pIC50	SMILES
10.3	Cc1c(F)cc(C(=O)NC2CC2)cc1-n1ccnc(NC2(c3cc(F)ccc3OCCNCCO)CC2)c1=O [Example 282, N-Cyclopropyl-3-fluoro-5-[3-{[1-(5-fluoro-2-{2-[(2-hydroxyethyl)amino]ethoxy}phenyl)cyclopropyl]amino}-2-oxopyrazin-1(2H)-yl]-4-methylbenzamide]
9.6	CONC(=O)c1ccc(C)c(-n2ccnc(N[C@@H](c3ccccc3)[C@@H](C)CN3CCCC3)c2=O)c1 [Example 159, N-Methoxy-4-methyl-3-[3-[[(1R,2S)-2-methyl-1-phenyl-3-(1-pyrrolidinyl)propyl]amino]-2-oxo-1(2H)-pyrazinyl]-benzamide]
7.1	Cc1ccc(C(=O)NC2CC2)cc1-n1ccnc(N2CCCC2Cc2ccccc2F)c1=O (stereo not shown) [Example 75, N-Cyclopropyl-3-[3-[2-[(2-fluorophenyl)methyl]-1-pyrrolidinyl]-2-oxo-1(2H)-pyrazinyl]-4-methyl-benzamide]
6.1	Cc1ccc(C(=O)NC2CC2)cc1-n1ccnc(NCc2ccc(C(C)(C)C)cc2)c1=O [Example 37, N-Cyclopropyl-3-[3-[[[4-(1,1-dimethylethyl)phenyl]methyl]amino]-2-oxo-1(2H)-pyrazinyl]-4-methyl-benzamide]
8.1	CNCCCOc1ccccc1C1CCCN1c1nccn(-c2cc(C(=O)NC3CC3)ccc2C)c1=O (stereo not shown) [Example 324, N-Cyclopropyl-4-methyl-3-[3-(2-{2-[3-(methylamino)propoxy]phenyl}pyrrolidin-1-yl)-2-oxopyrazin-1(2H)-yl]benzamide]
6.4	Cc1ccc(C(=O)NC2CC2)cc1-n1ccnc(NC(CN2CCCC2)c2ccccc2)c1=O (stereo not shown) [Example 34, N-Cyclopropyl-4-methyl-3-[2-oxo-3-[[1-phenyl-2-(1-pyrrolidinyl)ethyl]amino]-1(2H)-pyrazinyl]-benzamide]
8.9	Cc1ccc(C(=O)NC2CC2)cc1-n1ccnc(N[C@@H](c2ccccc2)[C@@H](C)CN2CC3CC2CN3C)c1=O (stereo partly drawn) [Example 196, N-Cyclopropyl-4-methyl-3-[3-[[(1R,2S)-2-methyl-3-(5-methyl-2,5-diazabicyclo[2.2.1]hept-2-yl)-1-phenylpropyl]amino]-2-oxo-1(2H)-pyrazinyl]-benzamide]
9	Cc1ccc(C(=O)NC2CC2)cc1-n1ccnc(N[C@@H](c2ccccc2)[C@@H](C)CN2CCC(F)(F)CC2)c1=O [Example 175, N-Cyclopropyl-3-[3-[[(1R,2S)-3-(4,4-difluoro-1-piperidinyl)-2-methyl-1-phenylpropyl]amino]-2-oxo-1(2H)-pyrazinyl]-4-methyl-benzamide]
7	Cc1ccc(C(=O)NC2CC2)cc1-n1ccnc(NCC2CNc3ccccc3C2)c1=O (stereo not shown) [Example 29, N-Cyclopropyl-4-methyl-3-[2-oxo-3-[[(1,2,3,4-tetrahydro-3-quinolinyl)methyl]amino]-1(2H)-pyrazinyl]-benzamide]
10.4	Cc1c(F)cc(C(=O)NC2CC2)cc1-n1ccnc(NC2(c3ccccc3OCCN)CC2)c1=O [Example 314, 3-[3-({1-[2-(2-Aminoethoxy)phenyl]cyclopropyl}amino)-2-oxopyrazin-1(2H)-yl]-N-cyclopropyl-5-fluoro-4-methylbenzamide]
9.9	Cc1c(F)cc(C(=O)NC2CC2)cc1-n1ccnc(NC(C)(C)c2ccccc2OCCNCCC(=O)O)c1=O [Example 313, N-(2-{2-[1-({4-[5-(Cyclopropylcarbamoyl)-3-fluoro-2-methylphenyl]-3-oxo-3,4-dihydropyrazin-2-yl}amino)-1-methylethyl]phenoxy}ethyl)-beta-alanine]
7.7	Cc1cc(C)cc(CNc2nccn(-c3cc(C(=O)NC4CC4)ccc3C)c2=O)c1 [Example 95, N-Cyclopropyl-3-[3-[[(3,5-dimethylphenyl)methyl]amino]-2-oxo-1(2H)-pyrazinyl]-4-methyl-benzamide]
8.5	Cc1cccc(C2CCCN2c2nccn(-c3cc(C(=O)NC4CC4)ccc3C)c2=O)c1 (stereo not shown) [Example 96, N-Cyclopropyl-4-methyl-3-[3-[2-(3-methylphenyl)-1-pyrrolidinyl]-2-oxo-1(2H)-pyrazinyl]-benzamide]
6.9	Cc1ccc(C(=O)NC2CC2)cc1-n1ccnc(NCc2ccccn2)c1=O [Example 23, N-Cyclopropyl-4-methyl-3-[2-oxo-3-[(2-pyridinylmethyl)amino]-1(2H)-pyrazinyl]-benzamide]
10.3	Cc1c(F)cc(C(=O)NC2CC2)cc1-n1ccnc(NC2(c3ccccc3OCCNC[C@H](C)O)CC2)c1=O [Example 263, N-Cyclopropyl-3-fluoro-5-[3-[[1-[2-[2-[[(2S)-2-hydroxypropyl]amino]ethoxy]phenyl]cyclopropyl]amino]-2-oxo-1(2H)-pyrazinyl]-4-methyl-benzamide]
8.5	CCc1ccc(C(=O)NC2CC2)cc1-n1ccnc(NC(C)(C)c2ccccc2OCCNCCO)c1=O [Example 291, N-Cyclopropyl-4-ethyl-3-[3-{[1-(2-{2-[(2-hydroxyethyl)amino]ethoxy}phenyl)-1-methylethyl]amino}-2-oxopyrazin-1(2H)-yl]benzamide]
10.1	Cc1c(F)cc(C(=O)NC2CC2)cc1-n1ccnc(NC2(c3ccccc3OCCNC(C)C)CC2)c1=O [Example 264, N-Cyclopropyl-3-fluoro-4-methyl-5-[3-[[1-[2-[2-[(1-methylethyl)amino]ethoxy]phenyl]cyclopropyl]amino]-2-oxo-1(2H)-pyrazinyl]-benzamide]
6.3	Cc1ccc(C(=O)NC2CC2)cc1-n1ccnc(N[C@@H](c2ccccc2)C2CCN(C(=O)OCc3ccccc3)CC2)c1=O [Example 102, 4-[(R)-[[4-[5-[(Cyclopropylamino)carbonyl]-2-methylphenyl]-3,4-dihydro-3-oxopyrazinyl]amino]phenylmethyl]-1-piperidinecarboxylic acid, phenylmethyl ester]
9.2	Cc1ccc(C(=O)NC2CC2)cc1-n1ccnc(N[C@@H](c2ccccc2)[C@@H](C)CNC(C)(C)C)c1=O [Example 153, N-Cyclopropyl-3-[3-[[(1R,2S)-3-[(1,1-dimethylethyl)amino]-2-methyl-1-phenylpropyl]amino]-2-oxo-1(2H)-pyrazinyl]-4-methyl-benzamide]
10.1	CNC[C@@H](O)COc1ccccc1C1(Nc2nccn(-c3cc(C(=O)NC4CC4)ccc3C)c2=O)CC1 [Example 301, N-Cyclopropyl-3-[3-{[1-(2-{[(2R)-2-hydroxy-3-(methylamino)propyl]oxy}phenyl)cyclopropyl]amino}-2-oxopyrazin-1(2H)-yl]-4-methylbenzamide]
7	Cc1ccc(C(=O)NC2CC2)cc1-n1ccnc(N2CCN(CCN3CCCC3)C(c3ccccc3)C2)c1=O (stereo not shown) [Example 123, N-Cyclopropyl-4-methyl-3-[2-oxo-3-[3-phenyl-4-[2-(1-pyrrolidinyl)ethyl]-1-piperazinyl]-1(2H)-pyrazinyl]-benzamide]
10.5	Cc1c(F)cc(C(=O)NC2CC2)cc1-n1ccnc(NC(C)(C)c2ccccc2OCCNC[C@@H](C)O)c1=O [Example 256, N-Cyclopropyl-3-fluoro-5-[3-[[1-[2-[2-[[(2R)-2-hydroxypropyl]amino]ethoxy]phenyl]-1-methylethyl]amino]-2-oxo-1(2H)-pyrazinyl]-4-methyl-benzamide]
